Assay: log k′ (degree of lipophilic character) from HPLC retention time under gradient condition
Assay type: physicochemical
Details: XTerra MS C18 5 μm, 2.1×100 mm column; acetonitrile/pH6.8 buffer 5:95~95:5/20 min; flow 0.25 mL/min
Description: log k′ is a value which means degree of the lipophilic character, and is calculated by the following formula.
tR: retention time of compound under gradient condition t0: retention time of standard material not retained in column
XTerra MS C18 5 μm, 2.1×100 mm column (made by Waters) was used for measurement. The elution was a straight line inclination of acetonitrile/pH6.8 buffer (5:95˜95:5/20 min) at flow velocity 0.25 mL/min.

Row | Compound | log k′
1 | CC(=O)NCC12CC3CC(C1)C(NC(=O)c1cnn(/C=C/C(C)(C)NC(C)=O)c1OCC(C)C)C(C3)C2 (centres unmarked) [Compound (XIII-1-3)] | 0.838
2 | COC(=O)NC12CC3CC(C1)C(NC(=O)c1cnn(/C=C/C(C)(C)NC(C)=O)c1OCC(C)C)C(C3)C2 (centres unmarked) [Compound (XIII-1-2)] | 0.886
